Reference: patent US20070004650A1, “Endurance improving agent” (KAO CORPORATION, priority 2003, published 2007)

Key:
Assay type in all cases: cell-based, mouse
[1] = test system: phospho-AMPK α (Thr72); assay: AMPK activation in Hepa 1-6 cells, phospho-AMPK α Western blot; settings: for Phospho-AMPK α: 60 minutes, Hepa 1-6, band intensity relative to control = 100; for AMPK-activating effect (summary in words): Hepa 1-6, results of Tables 4 to 6
Description: (§1) Test 3 (AMPK Activating Effect of Catechins)
(§2) Using a mouse hepatocyte line (Hepa 1-6), activation of AMPK was assessed based on degrees of phosphorylation of AMPK and ACC (acetyl-CoA carboxylase) as indices.
The mouse hepatocyte line (Hepa 1-6) was seeded in a 25-cm^2 flask, and cultured in DMEM (+10% FBS, +antimicrobial agent) at 37° C. for 1 to 2 days. When the culture has become subconfluent, the medium was removed. After washed with PBS(−),DMEM(−FBS)was added as a replacement medium, followed by further culture for 1 day. Subsequent to removal of the medium, DMEM (−FBS) with catechins and a tea extract added at predetermined concentrations therein was added, followed by culture for 60 minutes. Subsequent to removal of the medium and washing with PBS (−), a lytic solution [10 mM Tris (pH 7.4), 50 mM NaCl, 30 mM sodium pyrophosphate, 0.5% Triton X-100, protease inhibitor cocktail (“SIGMA P2714”), phosphatase inhibitor cocktail-1 (“SIGMA P2850”), phosphatase inhibitor cocktail 1-2 (“SIGMA P5726”); 200 μL] was added, and a lysate was collected by a cell scraper. The thus-collected lysate was caused to pass three times through a syringe with 23 G needle so that the lysate was homogenized. The homogenized lysate was then allowed stand on ice for 30 minutes. The lysate was centrifuged at 15,000 rpm and at 4° C. for 15 minutes, and proteins in supernatant were provided for use in the following experiment.
After the concentration of the proteins in supernatant was measured, it was adjusted such that the protein concentration became identical among the samples. A ¼ volume of SDS buffer (250 mM Tris, 12.5% SDS, 20% glycerol) was added, followed by further addition of 2-mercaptoethanol and bromophenol blue. The resulting mixture was subjected to thermal denaturation at 95° C., and was then quenched at 4° C. to provide a sample for electrophoresis.
A predetermined amount (about 20 to 40 μg) of the sample for electrophoresis was subjected to SDS-PAGE (4 or 12% gel). After transferred onto a membrane, phospho-AMPK α (Thr72), phospho-AMPK β (Ser108) and phospho-ACC (Ser79) were detected using an anti-phospho-AMPK α antibody (product of Cell Signaling Technology, Inc.), an anti-phospho-AMPK β antibody (product of Cell Signaling Technology, Inc.) or an anti-phospho-ACC antibody (product of Cell Signaling Technology, Inc.) as a primary antibody, an anti-rabbit-HRP antibody (product of Amersham Biosciences, Inc.) as a secondary antibody, and a phototope-HRP Western detection system (product of Cell Signaling Technology, Inc.) as a detection reagent. The intensities of detected bands were converted into numerical values (pixels) by an image analysis (“EDAS 290 Image Analysis System”, Kodak Company). Supposing that the corresponding band intensities of the control (catechins non-added group) were 100, the numerical values (pixels) were indicated as relative values to the values of the control. It is to be noted that as catechin samples, products of SIGMA Corporation or Wako Pure Chemical Industries, Ltd. were used. As the tea extract (tea catechins), “TEAFURAN” (product of ITO EN, LTD.) as used.

[2] = test system: phospho-AMPK β (Ser108); assay: AMPK activation in Hepa 1-6 cells, phospho-AMPK β Western blot; settings: 60 minutes, band intensity relative to control = 100
Description: as §1, §2
The mouse hepatocyte line (Hepa 1-6) was seeded in a 25-cm^2 flask, and cultured in DMEM (+10% FBS, +antimicrobial agent) at 37° C. for 1 to 2 days. When the culture has become subconfluent, the medium was removed. After washed with PBS(−),DMEM(−FBS)was added as a replacement medium, followed by further culture for 1 day. […]
After the concentration of the proteins in supernatant was measured, it was adjusted such that the protein concentration became identical among the samples. […]
A predetermined amount (about 20 to 40 μg) of the sample for electrophoresis was subjected to SDS-PAGE (4 or 12% gel). After transferred onto a membrane, phospho-AMPK α (Thr72), phospho-AMPK β (Ser108) and phospho-ACC (Ser79) were detected using an anti-phospho-AMPK α antibody (product of Cell Signaling Technology, Inc.), an anti-phospho-AMPK β antibody (product of Cell Signaling Technology, Inc.) or an anti-phospho-ACC antibody (product of Cell Signaling Technology, Inc.) as a primary antibody, an anti-rabbit-HRP antibody (product of Amersham Biosciences, Inc.) as a secondary antibody, and a phototope-HRP Western detection system (product of Cell Signaling Technology, Inc.) as a detection reagent. […]

[3] = test system: phospho-ACC (Ser79); assay: AMPK activation in Hepa 1-6 cells, phospho-ACC Western blot; settings: 60 minutes, band intensity relative to control = 100
Description: The mouse hepatocyte line (Hepa 1-6) was seeded in a 25-cm^2 flask, and cultured in DMEM (+10% FBS, +antimicrobial agent) at 37° C. for 1 to 2 days. When the culture has become subconfluent, the medium was removed. After washed with PBS(−),DMEM(−FBS)was added as a replacement medium, followed by further culture for 1 day. Subsequent to removal of the medium, DMEM (−FBS) with catechins and a tea extract added at predetermined concentrations therein was added, followed by culture for 60 minutes. […]
A predetermined amount (about 20 to 40 μg) of the sample for electrophoresis was subjected to SDS-PAGE (4 or 12% gel). […] The intensities of detected bands were converted into numerical values (pixels) by an image analysis (“EDAS 290 Image Analysis System”, Kodak Company). […]

Compound | Phospho-AMPK α ([1]; Table 4, 150 μM) | AMPK-activating effect (summary in words) [1] | other results
Oc1cc(O)c2c(c1)O[C@H](c1ccc(O)c(O)c1)[C@H](O)C2 [Epicatechin] | 246 | – | –
O=C(O[C@@H]1Cc2c(O)cc(O)cc2O[C@@H]1c1ccc(O)c(O)c1)c1cc(O)c(O)c(O)c1 [Epicatechingallate] | 256 | – | –
Oc1cc(O)c2c(c1)O[C@H](c1cc(O)c(O)c(O)c1)[C@H](O)C2 [Epigallocatechin] | 435 | excellent AMPK-activating effect | –
O=C(O[C@@H]1Cc2c(O)cc(O)cc2O[C@@H]1c1cc(O)c(O)c(O)c1)c1cc(O)c(O)c(O)c1 [Epigallocatechingallate] | 1085 | excellent AMPK-activating effect | Phospho-AMPK β ([2]; Table 5, 100 μM): 120; Phospho-AMPK β ([2]; Table 5, 150 μM): 149; Phospho-AMPK α ([1]; Table 5, 100 μM): 198; Phospho-AMPK α ([1]; Table 5, 150 μM): 261; Phospho-ACC ([3]; Table 5, 100 μM): 220; Phospho-ACC ([3]; Table 5, 150 μM): 304
Oc1cc(O)c2c(c1)O[C@H](c1cc(O)c(O)c(O)c1)[C@@H](O)C2 [Gallocatechin] | 451 | excellent AMPK-activating effect | –
O=C(O[C@@H]1Cc2c(O)cc(O)cc2O[C@H]1c1cc(O)c(O)c(O)c1)c1cc(O)c(O)c(O)c1 [Gallocatechingallate] | 1124 | excellent AMPK-activating effect | –
Catechin | 78 | – | –
Catechingallate | 369 | – | –
